Experimental data from ChEMBL document CHEMBL5728860, “[1,2,4]Triazolo[4,3-A]pyrazin-6(5H)-one derivatives” (2021).

Experiments:
[1] = molecular target: Rod cGMP-specific 3',5'-cyclic phosphodiesterase alpha/beta (Homo sapiens, UniProt P16499+P35913); test: PDE Enzyme Assays Using [3H]cGMP as Substrate: The following phosphodiesterase activities are measured using [3H]cGMP as reaction substrate: human PDE6A/6B. The catalytic active form of human PDE6 is a dimer composed of a α (human PDE6A) and β subunits (human PDE6B). The dimer of human PDE6A/6B is produced by the coexpression and purification strategy, using two purification steps, i.e., NiNTA and anti-FLAG Sepharose chromatography. The assay buffer is prepared to give a final concentration in the assay of 50 mM Tris-HCl, 8.3 mM MgCl2, 1.7 mM EDTA and 0.1% Bovine serum albumin at pH 7.5. The final enzyme concentration is 5 nM. The reactions are started by addition of the substrate, [3H]cGMP, to give a final concentration of 80 nM.; assay type: protein-complex assay
Rod cGMP-specific 3',5'-cyclic phosphodiesterase alpha/beta, sequence (P35913 whole entry): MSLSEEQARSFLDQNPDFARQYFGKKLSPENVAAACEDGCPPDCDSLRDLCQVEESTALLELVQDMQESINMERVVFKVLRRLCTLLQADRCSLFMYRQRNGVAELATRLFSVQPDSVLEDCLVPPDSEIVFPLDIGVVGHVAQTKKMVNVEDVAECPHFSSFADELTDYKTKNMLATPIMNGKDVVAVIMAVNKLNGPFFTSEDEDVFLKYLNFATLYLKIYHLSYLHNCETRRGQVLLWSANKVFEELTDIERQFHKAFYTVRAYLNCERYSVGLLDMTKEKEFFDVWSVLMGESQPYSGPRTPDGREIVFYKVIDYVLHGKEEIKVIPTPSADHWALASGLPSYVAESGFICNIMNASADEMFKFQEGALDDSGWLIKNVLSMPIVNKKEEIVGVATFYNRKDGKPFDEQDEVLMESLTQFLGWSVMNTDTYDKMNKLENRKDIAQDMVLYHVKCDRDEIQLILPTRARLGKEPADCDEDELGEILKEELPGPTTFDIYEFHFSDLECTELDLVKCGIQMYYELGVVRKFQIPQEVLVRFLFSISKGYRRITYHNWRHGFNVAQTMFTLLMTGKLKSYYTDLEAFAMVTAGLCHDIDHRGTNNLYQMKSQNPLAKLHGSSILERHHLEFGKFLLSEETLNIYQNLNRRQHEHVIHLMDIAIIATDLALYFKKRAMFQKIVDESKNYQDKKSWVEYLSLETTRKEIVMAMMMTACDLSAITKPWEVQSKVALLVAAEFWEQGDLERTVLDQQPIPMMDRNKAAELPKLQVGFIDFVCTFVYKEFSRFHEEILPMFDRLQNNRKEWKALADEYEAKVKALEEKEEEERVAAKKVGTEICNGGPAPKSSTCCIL
Rod cGMP-specific 3',5'-cyclic phosphodiesterase alpha/beta, sequence (P16499 whole entry): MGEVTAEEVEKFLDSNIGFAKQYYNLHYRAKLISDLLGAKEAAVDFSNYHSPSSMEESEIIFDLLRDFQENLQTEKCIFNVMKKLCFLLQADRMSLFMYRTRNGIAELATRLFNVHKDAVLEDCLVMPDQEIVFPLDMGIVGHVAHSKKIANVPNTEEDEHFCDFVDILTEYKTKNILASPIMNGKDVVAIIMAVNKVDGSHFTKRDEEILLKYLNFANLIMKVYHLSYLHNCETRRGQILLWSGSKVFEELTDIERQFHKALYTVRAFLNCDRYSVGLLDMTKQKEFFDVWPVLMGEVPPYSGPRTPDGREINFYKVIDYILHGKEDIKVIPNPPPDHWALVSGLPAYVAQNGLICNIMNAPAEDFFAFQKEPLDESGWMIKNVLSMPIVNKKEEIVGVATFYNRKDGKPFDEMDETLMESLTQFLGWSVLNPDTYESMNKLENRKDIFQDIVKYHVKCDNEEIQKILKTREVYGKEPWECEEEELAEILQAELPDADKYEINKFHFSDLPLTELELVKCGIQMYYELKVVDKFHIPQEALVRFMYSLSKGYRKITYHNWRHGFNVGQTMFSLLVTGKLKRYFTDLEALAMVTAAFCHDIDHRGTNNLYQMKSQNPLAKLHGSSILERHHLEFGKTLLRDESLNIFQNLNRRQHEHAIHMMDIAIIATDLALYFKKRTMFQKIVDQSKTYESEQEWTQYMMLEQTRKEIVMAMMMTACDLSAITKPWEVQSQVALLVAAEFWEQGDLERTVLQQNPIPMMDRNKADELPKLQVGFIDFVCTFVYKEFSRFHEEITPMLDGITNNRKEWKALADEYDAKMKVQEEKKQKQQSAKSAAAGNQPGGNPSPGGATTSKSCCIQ

[2] = molecular target: cGMP-inhibited 3',5'-cyclic phosphodiesterase 3A (Homo sapiens, UniProt Q14432); test: PDE Enzyme Assays Using [3H]cAMP as Substrate: The following phosphodiesterase activities are measured using [3H]cAMP as reaction substrate: human PDE3A (catalytic domain) and human PDE4D. Both enzymes are cloned and purified following standard procedures. The assay buffer is prepared to give a final concentration in the assay of 50 mM Tris-HCl, 8.3 mM MgCl2, 1.7 mM ethylenediaminetetraacetic acid (EDTA) and 0.1% Bovine serum albumin at pH 7.5. Final enzyme concentrations are 0.008 and 0.021 nM for PDE3A and PDE4D, respectively. Reactions are started by addition of the substrate, [3H]cAMP, to give a final concentration of 47 nM.
cGMP-inhibited 3',5'-cyclic phosphodiesterase 3A, sequence (Q14432 whole entry, the tested form may be a part): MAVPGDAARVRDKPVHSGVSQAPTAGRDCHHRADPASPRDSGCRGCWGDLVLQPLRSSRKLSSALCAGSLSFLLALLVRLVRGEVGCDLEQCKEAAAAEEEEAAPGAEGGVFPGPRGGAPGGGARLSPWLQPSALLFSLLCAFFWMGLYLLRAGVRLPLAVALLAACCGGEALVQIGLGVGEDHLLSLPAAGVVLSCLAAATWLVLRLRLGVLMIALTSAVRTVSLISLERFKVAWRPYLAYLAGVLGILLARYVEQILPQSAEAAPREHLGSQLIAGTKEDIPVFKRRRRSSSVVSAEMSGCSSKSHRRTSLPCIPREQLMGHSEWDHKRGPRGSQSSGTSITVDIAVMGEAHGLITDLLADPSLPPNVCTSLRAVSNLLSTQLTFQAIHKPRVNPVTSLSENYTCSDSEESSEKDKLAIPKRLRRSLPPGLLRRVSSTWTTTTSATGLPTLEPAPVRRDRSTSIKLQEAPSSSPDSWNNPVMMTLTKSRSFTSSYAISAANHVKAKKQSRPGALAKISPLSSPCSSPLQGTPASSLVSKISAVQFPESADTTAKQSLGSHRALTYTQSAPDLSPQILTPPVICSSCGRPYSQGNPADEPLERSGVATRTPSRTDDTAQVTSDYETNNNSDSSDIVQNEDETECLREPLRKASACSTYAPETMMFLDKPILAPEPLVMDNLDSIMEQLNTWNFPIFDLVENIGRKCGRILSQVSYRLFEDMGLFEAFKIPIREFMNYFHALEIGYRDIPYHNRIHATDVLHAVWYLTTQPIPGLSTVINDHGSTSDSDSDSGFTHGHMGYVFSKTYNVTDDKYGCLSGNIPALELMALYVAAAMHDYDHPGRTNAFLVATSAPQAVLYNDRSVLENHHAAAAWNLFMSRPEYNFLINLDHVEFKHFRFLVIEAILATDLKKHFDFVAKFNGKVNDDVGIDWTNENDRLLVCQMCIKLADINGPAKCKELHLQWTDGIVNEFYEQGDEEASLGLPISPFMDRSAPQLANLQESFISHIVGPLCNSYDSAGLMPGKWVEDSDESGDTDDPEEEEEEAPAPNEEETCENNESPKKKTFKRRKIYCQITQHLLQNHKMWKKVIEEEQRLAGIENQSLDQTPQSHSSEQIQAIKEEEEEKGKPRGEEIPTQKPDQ

[3] = molecular target: Dual specificity calcium/calmodulin-dependent 3',5'-cyclic nucleotide phosphodiesterase 1A (Homo sapiens, UniProt P54750); test: Ca2+-Calmodulin Dependent PDE Enzyme Assays: PDE1B, PDE1A, and PDE1C are cloned and purified following standard protein generation procedures. The assay buffer is prepared to give a final concentration in the assay of 50 mM Tris-HCl, 50 mM MgCl2, 4 mM CaCl2, 0.1% Bovine serum albumin and 6 U/ml Calmodulin in water, at pH 7.5. The final enzyme concentration is 0.25, 0.074 and 0.0012 nM, for PDE1A, PDE1B and PDE1C respectively. The reactions are started by addition of the substrate, [3H]cAMP, to give a final concentration of 47 nM.
Dual specificity calcium/calmodulin-dependent 3',5'-cyclic nucleotide phosphodiesterase 1A, sequence (P54750 whole entry): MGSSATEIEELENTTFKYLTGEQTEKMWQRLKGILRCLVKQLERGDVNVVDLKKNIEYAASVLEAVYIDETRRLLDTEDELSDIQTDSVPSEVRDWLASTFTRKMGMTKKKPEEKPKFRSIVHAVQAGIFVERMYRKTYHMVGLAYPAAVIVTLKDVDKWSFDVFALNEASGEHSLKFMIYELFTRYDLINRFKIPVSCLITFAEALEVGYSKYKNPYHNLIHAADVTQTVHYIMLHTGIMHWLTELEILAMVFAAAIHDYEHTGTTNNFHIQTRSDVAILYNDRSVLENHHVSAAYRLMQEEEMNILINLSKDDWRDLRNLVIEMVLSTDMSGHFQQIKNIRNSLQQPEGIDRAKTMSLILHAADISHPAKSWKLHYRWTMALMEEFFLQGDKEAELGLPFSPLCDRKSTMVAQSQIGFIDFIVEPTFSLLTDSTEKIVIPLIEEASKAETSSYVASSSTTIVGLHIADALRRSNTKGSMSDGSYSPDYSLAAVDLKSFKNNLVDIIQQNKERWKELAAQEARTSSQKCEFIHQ

| IC50 [1] | IC50 [2] | IC50 [3] | SMILES |
| --- | --- | --- | --- |
| 3850 nM | > 100000 nM | 0.996 nM | CCCCn1c(=O)c2nnc(C3(C4CC4)CC3)n2c2ncc(CO)cc21 |
| 982 nM | > 100000 nM | 0.214 nM | CCCCn1c(=O)c2nnc(C3(C4CC4)CC3)n2c2ncc(CC)cc21 |
